Converted amounts (≈) assume the structure as drawn. Where two headings read alike, the source gives them in different places.
Columns and labels:
[1] = Intrinsic dissolution rate in aqueous buffers; assay type: physicochemical; conditions: for Intrinsic Dissolution Rate: 37° C.
Description: (x) intrinsic dissolution rate was measured in a dissolution bath coupled to a fibre optic uv detector.

Dynamic vapour sorption = assay type: physicochemical; conditions: for hygroscopicity (in words): Dynamic Vapour Sorption
Description: (ix) dynamic vapour sorption was measured using a SMS DVS (Surface Measurement Systems Limited, UK). Samples were analysed at 25° C. using a gas flow of 200 cubic centimeters per minute. The relative humidity (RH) was increased from 0% RH in steps of 10% RH to 80% RH with the final step of 95% RH. The sample was then desorbed using the same RH step pattern as the sorption; this procedure was then repeated in a second sorption/desorption cycle. Equilibration at each humidity step is set such that the rate of change of weight with time (minute) was 0.002%.

[2] = In vitro dissolution of direct compression tablets; assay type: physicochemical; conditions: pH 4.5 citrate buffer, 100 mg free base equivalents
Description: The performance of the solid dosage forms was evaluated in vitro prior to the in-vivo dog study commencing.

[3] = Pharmacokinetic study in dogs; assay type: in vivo, Male Beagle Dogs; conditions: dog, n = 4, mean ± SE; for AUC(0-t): read-out: AUC(0-48)
[4] = Aqueous solubility (HPLC UV); assay type: physicochemical; conditions: for solubility at 48 h: thermodynamic from solid, 25° C.
Description: (xi) solubility in water was measured using HPLC UV.
The intrinsic dissolution rates of Compound (I) difumarate Form A and Compound (I) was also been measured in a range of aqueous buffers.

MCF-7 cells [5] = test: Basal MCF-7 cell proliferation assay (MTS); assay type: cell-based; conditions: Homo sapiens, MCF7, 96 h, unstimulated, 4 days, read-out: Basal proliferation Geo Mean GI50
Description: MCF-7 cells were routinely cultured in DMEM (Phenol red free)+10% Foetal Bovine Serum+2 mM L-Glutamine. […] Basal wells were unstimulated with ligand. After incubation for 4 days, cell viability was assessed using a 3-(4,5-dimethylthiazol-2-yl)-5-(3-carboxymethoxyphenyl)-2-(4-sulfophenyl)-2H-tetrazolium (MTS) assay. Prior to IC50 determination of HRG-stimulated compound-treated cells, mean basal growth at 96 hours was subtracted from each of the readouts so that proliferation driven through HRG-signalling was assessed. Basal IC50 values are expressed as GI50 i.e. the day 0 plate cell number (baseline reading) was subtracted from the readout at 96 hours later.

[6] = Cellular permeability / BCS classification; assay type: in vitro ADME
ErbB2 = ErbB2 (Homo sapiens, UniProt P04626); test: p-ErbB2 ELISA in HRG-stimulated MCF-7 cells; assay type: cell-based; conditions: 90 minutes treatment, bracket = confidence interval ratio, read-out: p-ErbB2 Geo Mean IC50 (95% CIR)
ErbB3 = test: p-ErbB3 ELISA in HRG-stimulated MCF-7 cells; assay type: cell-based, Human; conditions: 90 minutes treatment, bracket = confidence interval ratio, read-out: p-ErbB3 Geo Mean IC50 (95% CIR)
Description: KB cells and MCF-7 cells were obtained from the American Type Culture Collection (ATCC) and routinely cultured in RPMI 1640 (Phenol red free)+10% Foetal Bovine Serum+2 mM L-Glutamine. KB cells were seeded at 5000 cells/well and MCF-7 cells at 4000 cells/well in 96 well plates in RPMI 1640 media containing 10% FBS. Cells were incubated for 72 hours before replacing the media with serum-free RPMI 1640 media for 24 hours. […] Immediately before cell lysis, MCF-7 and KB cells were incubated for 5 minutes with ligand (heregulin (“HRG”) for the MCF-7 cells and epidermal growth factor (“EGF”) for the KB cells) at concentrations required to increase receptor phosphorylation to 90% of max (ED90) to allow inter-assay comparison. The p-EGFR status of KB cells was measured using the Human phospho-EGFR Duoset ELISA kit (R&D systems total EGFR #DYC1854, pEGFR #DYC1095). The p-ErbB2 and p-ErbB3 content of MCF-7 cells were measured using the Human phospho-ErbB2 Duoset ELISA kit (R&D systems, DYC1768) and Human phospho-ErbB3 Duoset ELISA kit (R&D systems, DYC1769) respectively. The kits measured whole cell tyrosine phosphorylation of EGFR, ErbB2 or ErbB3. Assays were performed according to the manufacturers instructions, with 50 μl lysate added per well.

MCF-7 cells [7] = test: HRG-stimulated MCF-7 cell proliferation assay (MTS); assay type: cell-based; conditions: Homo sapiens, MCF7, 96 h, 10 ng/ml HRG, 4 days, basal growth subtracted, read-out: HRG-stimulated proliferation Geo Mean IC50
[8] = oral direct compressed tablet, 100 mg free form equivalent
[9] = oral direct compressed tablet, 100 mg free form equivalent, versus IV 20 mg
[10] = male, beagle, plasma, oral direct compressed tablet, 100 mg free form equivalent

ErbB2, sequence (P04626 23-1255): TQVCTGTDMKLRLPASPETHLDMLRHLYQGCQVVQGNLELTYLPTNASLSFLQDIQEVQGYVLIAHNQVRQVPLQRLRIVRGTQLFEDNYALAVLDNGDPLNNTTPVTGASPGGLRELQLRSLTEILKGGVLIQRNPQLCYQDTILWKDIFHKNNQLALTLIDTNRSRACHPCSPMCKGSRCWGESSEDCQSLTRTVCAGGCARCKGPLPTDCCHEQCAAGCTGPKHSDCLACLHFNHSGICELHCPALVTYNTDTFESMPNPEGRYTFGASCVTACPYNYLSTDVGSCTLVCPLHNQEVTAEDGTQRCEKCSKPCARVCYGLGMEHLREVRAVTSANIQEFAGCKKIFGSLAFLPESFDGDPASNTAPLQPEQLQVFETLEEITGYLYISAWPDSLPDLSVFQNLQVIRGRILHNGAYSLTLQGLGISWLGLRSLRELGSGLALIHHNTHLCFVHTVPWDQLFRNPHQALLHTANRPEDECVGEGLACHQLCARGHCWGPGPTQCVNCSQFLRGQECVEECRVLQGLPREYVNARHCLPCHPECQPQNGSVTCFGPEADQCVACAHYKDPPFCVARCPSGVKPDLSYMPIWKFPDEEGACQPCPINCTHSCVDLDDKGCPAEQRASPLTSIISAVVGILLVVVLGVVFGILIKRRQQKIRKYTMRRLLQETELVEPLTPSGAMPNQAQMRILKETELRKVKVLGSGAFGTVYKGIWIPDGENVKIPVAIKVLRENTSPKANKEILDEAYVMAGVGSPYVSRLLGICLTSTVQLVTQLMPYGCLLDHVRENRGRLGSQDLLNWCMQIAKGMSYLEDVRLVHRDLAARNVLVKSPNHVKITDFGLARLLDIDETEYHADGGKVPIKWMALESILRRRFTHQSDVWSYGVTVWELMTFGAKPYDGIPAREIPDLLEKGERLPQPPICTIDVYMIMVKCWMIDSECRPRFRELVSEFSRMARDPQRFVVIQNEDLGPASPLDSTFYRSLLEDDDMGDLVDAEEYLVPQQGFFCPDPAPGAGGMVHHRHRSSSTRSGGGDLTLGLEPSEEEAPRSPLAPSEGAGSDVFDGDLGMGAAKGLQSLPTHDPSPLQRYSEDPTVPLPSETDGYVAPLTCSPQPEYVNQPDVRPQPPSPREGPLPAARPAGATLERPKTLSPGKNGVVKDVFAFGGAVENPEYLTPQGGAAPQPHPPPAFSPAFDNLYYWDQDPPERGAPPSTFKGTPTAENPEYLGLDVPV

## CNC(=O)CN1CCC(Oc2cc3c(Nc4cccc(Cl)c4F)ncnc3cc2OC)CC1.O=C(O)/C=C/C(=O)O.O=C(O)/C=C/C(=O)O [Compound (I) difumarate Form A, 2-[4-({4-[(3-Chloro-2-fluorophenyl)amino]-7-methoxyquinazolin-6-yl}oxy)piperidin-1-yl]-N-methylacetamide di-[(2E)-but-2-enedioate] Form A]
[1]; SGF (Simulated Gastric Fluid)
  Intrinsic Dissolution Rate: 15.9 mgmin^−1cm^−2
[1]; pH 6.5 phosphate buffer
  Intrinsic Dissolution Rate: 2.51 mgmin^−1cm^−2
Dynamic vapour sorption
  hygroscopicity (in words): non-hygroscopic
Dynamic vapour sorption; up to 95% relative humidity, 25° C.
  moisture absorbed (Dynamic Vapour Sorption): < 0.5%
[2]
  % Dissolution at 45 minutes: 100.3%
[3]; [8]
  AUC(0-48): 190.3 ± 46.9 µM·h
  Cmax: 32.6 ± 3.6 µM
  Tmax: 1.1 ± 0.3 h
  half-life: 16.9 ± 4.0 h
[3]; [9]
  Bioavailability(0-48 h): 113%
[3]; oral direct compressed tablet, 100 mg free form equivalent, versus IV 20 mg, listed as Difumarate Form A
  Bioavailability(0-48 h): 112.5 ± 8.1%
[4]; pH 3.5
  solubility in water: 22500 µg/mL

## CNC(=O)CN1CCC(Oc2cc3c(Nc4cccc(Cl)c4F)ncnc3cc2OC)CC1 [Compound (I), 4-(3-chloro-2-fluoroanilino)-7-methoxy-6-{[1-(N-methylcarbamoylmethyl)piperidin-4-yl]oxy}quinazoline]
MCF-7 cells [5]
  GI50: 1090 nM
[1]; SGF (Simulated Gastric Fluid)
  Intrinsic Dissolution Rate: 19.2 mgmin^−1cm^−2
[1]; pH 6.5 phosphate buffer
  Intrinsic Dissolution Rate: 0.01 mgmin^−1cm^−2
[1]; particularly at pH below 6.0
  intrinsic dissolution rate (in words): relatively low
[6]
  cellular permeability (in words): high
[6]; suggested by low solubility and high permeability
  BCS classification: Class II
Dynamic vapour sorption
  hygroscopicity (in words): moderately hygroscopic
Dynamic vapour sorption; at 80% relative humidity, 25° C.
  moisture uptake (Dynamic Vapour Sorption): approximately 1.9 % w/w
[2]
  % Dissolution at 45 minutes: 93.6%
[3]; [9]
  Bioavailability(0-48 h): 63.5 ± 7.0%
[3]; male, beagle, plasma, oral, 100 mg, oral direct compressed tablet, 100 mg free form equivalent, versus IV 20 mg, read-out: Bioavailability(0-48 h)
  bioavailability: 64%
[3]; male, beagle, plasma, IV 20 mg
  Cmax: 9 ± 1.1 µM
  AUC(0-t): 33.4 ± 7.7 µM·h
[3]; male, beagle, plasma, IV 20 mg, read-out: Cl (Clearance)
  clearance: 1.9 ± 0.5 mL/min/kg
[3]; male, beagle, plasma, IV 20 mg, read-out: Half-life (converted)
  half-life: 5.3 ± 0.2 h
[3]; male, beagle, plasma, IV 20 mg, read-out: Tmax
  Tmax: 0.2 h
[3]; male, beagle, plasma, IV 20 mg, read-out: Vss (Volume of distribution at steady state)
  Vd: 0.6 ± 0.1 L/kg
[3]; [10]
  Cmax: 14 ± 1.7 µM
  AUC(0-t): 104 ± 25.3 µM·h
[3]; male, beagle, plasma, oral direct compressed tablet, 100 mg free form equivalent, read-out: Half-life (converted)
  half-life: 8.2 ± 0.6 h
[3]; male, beagle, plasma, oral direct compressed tablet, 100 mg free form equivalent, read-out: Tmax
  Tmax: 1.6 ± 0.8 h
[4]; aqueous buffer, pH 2.7, 48 hours, read-out: solubility in aqueous buffer
  solubility at 48 h: 27200 µg/mL (≈ 57400 µM)
[4]; aqueous buffer, pH 7.9, 48 hours, read-out: solubility in aqueous buffer
  solubility at 48 h: 1 µg/mL (≈ 2.11 µM)
[4]; water, 48 hours, pH 7.0, read-out: solubility in water
  solubility at 48 h: 1 µg/mL (≈ 2.11 µM)
ErbB2
  IC50: 3 nM
ErbB3
  IC50: 4 nM
MCF-7 cells [7]
  IC50: 61 nM

— patent US8404839B2, “Crystalline 4-(3-chloro-2-fluoroanilino)-7 methoxy-6-{[1-(N-methylcarbamoylmethyl)piperidin-4-yl]oxy} quinazoline difumarate Form A” (Astrazeneca AB, priority 2008, dated 2013)
